Experimental findings from PubChem BioAssay (NCI) are described below.

Several values for one entry are separate records, joined by “and”; a condition that tells them apart may be missing. Equal entries are not always repeated.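 These data come from cells grown in 96-well plates and exposed to compound for 48 hours at five concentrations. GI50 is the concentration that inhibits growth by half. At the TGI there is no net growth.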 Some results are limits rather than exact numbers.

A word on the TGI: it is the concentration giving total growth inhibition. A high value points to less potent growth arrest. One may read the GI50 as the concentration giving 50% growth inhibition.

Test systems include DU-145 prostate; KM12 colon; LXFL 529 NSCLC; NCI-H23 lung; OVCAR-5 ovarian; OVCAR-8 ovarian; RPMI-8226 leukemia; SF-539 CNS; SW-620 colon; XF 498 CNS.
What all share (experiment): DTP human tumour cell line panel, 48 h

As to `CC1=C(C(=O)Nc2ccccc2C)C(c2ccc(C3C(C(=O)Nc4ccccc4C)=C(C)NC(C)=C3C(=O)Nc3ccccc3C)cc2)C(C(=O)Nc2ccccc2C)=C(C)N1`, the total growth inhibition concentration (TGI) in the test with DU-145 prostate amounted to 32100 nM; in the test on KM12 colon, 4750 nM; in the test on LXFL 529 NSCLC it was 10500 nM; in the test with NCI-H23 lung it was 9600 nM; in the test on OVCAR-5 ovarian, 31800 nM; with OVCAR-8 ovarian, 8570 nM. The concentration for total growth inhibition (TGI) was 7850 nM with RPMI-8226 leukemia, 8570 nM in the test on SF-539 CNS, 6300 nM in the test on SW-620 colon and 35600 nM in the test with XF 498 CNS.

As for `C[C@H](N)C(=O)N[C@@H]1[C@H]2C(=C(O)C[C@@H](O)[C@@H]2O)C(=O)O[C@]1(C)C(Cl)Cl`, the GI50 with DU-145 prostate is 372 nM; with KM12 colon, 255 nM; in the test with NCI-H23 lung it was 226 nM; in the test with OVCAR-8 ovarian, 255 nM; with RPMI-8226 leukemia, 261 nM and 161 nM; in the test with SF-539 CNS it was 326 nM. Besides, the results for the GI50 in the test on SW-620 colon and in the test with XF 498 CNS were 221 nM and 211 nM, respectively. The TGI is 1990 nM and 1520 nM in the test with KM12 colon; 1530 nM in the test with LXFL 529 NSCLC; 1040 nM and 1100 nM with NCI-H23 lung; 7440 nM and 3440 nM in the test on OVCAR-5 ovarian; 3120 nM and 1180 nM with OVCAR-8 ovarian; 2570 nM and 2350 nM in the test with RPMI-8226 leukemia. For the same compound, the TGI with SF-539 CNS is 2370 nM and 880 nM; in the test with SW-620 colon, 6600 nM and 3000 nM; with XF 498 CNS it was 1050 nM and 310 nM.

Regarding `CCOC(=O)C[C@@H](C)[C@]1(C(=O)OC)CCCC1=O`, the TGI is > 100000 nM in the test on KM12 colon; > 100000 nM in the test with LXFL 529 NSCLC; > 100000 nM with NCI-H23 lung; > 100000 nM in the test on OVCAR-5 ovarian; > 100000 nM with OVCAR-8 ovarian; > 71400 nM in the test with RPMI-8226 leukemia. The TGI in the test on SF-539 CNS, with SW-620 colon and in the test with XF 498 CNS was > 100000 nM throughout.

With `COc1cccc(NC(=O)C(C)(C)C)c1C=O`, the TGI with KM12 colon, in the test on LXFL 529 NSCLC, with NCI-H23 lung, in the test on OVCAR-5 ovarian, in the test with OVCAR-8 ovarian and with RPMI-8226 leukemia was > 100000 nM in each case. Also, the values for the TGI in the test with SF-539 CNS, in the test with SW-620 colon and in the test on XF 498 CNS were > 100000 nM, > 100000 nM and 85400 nM, respectively.

`CCN(CC)CC.CCOc1ccc(NC(=O)N=C=[N-])cc1.[CH-]1CCCCC1.[CH-]1CCCCC1.[CH-]1CCCCC1.[Cl-].[Sn+4]`: the GI50 with DU-145 prostate is 61.7 nM; in the test on KM12 colon, 16.1 nM; with LXFL 529 NSCLC, 19.3 nM; in the test on NCI-H23 lung, 31.2 nM; with OVCAR-5 ovarian, 42.7 nM; with OVCAR-8 ovarian it was 42.4 nM. Moreover, the GI50 is 19.9 nM in the test with RPMI-8226 leukemia, 23.4 nM with SF-539 CNS, 16.9 nM in the test with SW-620 colon and 33.5 nM in the test with XF 498 CNS. In addition, the TGI in the test on DU-145 prostate was 190 nM; in the test with KM12 colon, 42.9 nM; with LXFL 529 NSCLC, 48.8 nM; with NCI-H23 lung it was 88.2 nM; in the test with OVCAR-5 ovarian, 114 nM; in the test with OVCAR-8 ovarian it was 123 nM. In addition, the TGI in the test with RPMI-8226 leukemia stood at 64 nM; in the test with SF-539 CNS, 52 nM; in the test on SW-620 colon, 32.6 nM; with XF 498 CNS, 103 nM.

Regarding `C=CC(=O)N1C/C(=C\c2ccccc2)C(=O)/C(=C/c2ccccc2)C1`, the TGI stood at 15900 nM with DU-145 prostate; 2400 nM in the test on KM12 colon; 2820 nM with LXFL 529 NSCLC; 5430 nM with NCI-H23 lung; 5720 nM with OVCAR-5 ovarian; 4940 nM in the test on OVCAR-8 ovarian. The TGI was 871 nM and 1080 nM in the test with RPMI-8226 leukemia; 3690 nM with SF-539 CNS; 831 nM in the test on SW-620 colon; 3540 nM with XF 498 CNS. For the same compound, the GI50 is 443 nM in the test with KM12 colon, 800 nM in the test with OVCAR-8 ovarian, 170 nM in the test on RPMI-8226 leukemia and 534 nM in the test on SW-620 colon.

As for `Cc1ccc(-n2c3nc(=O)n(C)c(=O)c-3nc3ccccc32)cc1`, the TGI in the test on KM12 colon is > 100000 nM; in the test with LXFL 529 NSCLC it was > 100000 nM; with NCI-H23 lung, 11800 nM; with OVCAR-5 ovarian, 45300 nM; in the test with OVCAR-8 ovarian it was 51800 nM; in the test on RPMI-8226 leukemia, 54600 nM. For the same compound, the TGI in the test with SF-539 CNS is > 100000 nM; in the test on SW-620 colon, 19600 nM; in the test with XF 498 CNS it was 55900 nM.

As for `C=CCCCn1ccc2ccccc21`, the TGI in the test with KM12 colon, in the test on LXFL 529 NSCLC, with NCI-H23 lung, in the test with OVCAR-5 ovarian, in the test on OVCAR-8 ovarian and in the test with RPMI-8226 leukemia was > 100000 nM each time. In addition, the TGI in the test on SF-539 CNS, in the test on SW-620 colon and in the test on XF 498 CNS was > 100000 nM each time.

Consider `O=C(NCCO)c1cc2c(cn1)[nH]c1ccccc12`, for which the TGI in the test with KM12 colon, in the test with LXFL 529 NSCLC, in the test with NCI-H23 lung, with OVCAR-5 ovarian, with OVCAR-8 ovarian and in the test with RPMI-8226 leukemia was > 100000 nM each time. Further, the TGI in the test with SF-539 CNS, with SW-620 colon and in the test with XF 498 CNS was > 100000 nM each time.

As to `O=C(O)C1=C(C(=O)Nc2ccccc2)C2C=CC1C2` (stereo not given), the concentration for total growth inhibition (TGI) in the test with KM12 colon, in the test on LXFL 529 NSCLC, with NCI-H23 lung, in the test with OVCAR-5 ovarian, with OVCAR-8 ovarian and in the test on RPMI-8226 leukemia was > 100000 nM in each case. Further, the TGI in the test on SF-539 CNS, in the test with SW-620 colon and in the test on XF 498 CNS was > 100000 nM in each case.
